Assay results taken from patent US20180201694A1, “CHITIN DERIVATIVES, METHOD FOR PRODUCTION AND USES THEREOF” (JAWAHARLAL NEHRU CENTRE FOR ADVANCED SCIENTIFIC RESEARCH …, priority 2013, published 2018).

Experiments:
Assay type in all cases: cell-based
S. aureus [1] = experiment: In-vitro antibacterial activity (MIC/MBC), coated 96-well plate; conditions: 10^5 CFU/mL, 37° C., 24 h, composite as (1c+AgPTS)
Experimental: (§1) Chitin derivatives were first dissolved in methanol (50 mg/mL) and the solutions were serially diluted. 20 μL of the solutions of different concentrations were added into wells of a 96-well plate. The solution was first air-dried and finally dried in vacuum oven to make a film onto the flat-bottom surface of wells of 96-well plate. Each concentration was applied in triplicate for all the samples to study the antibacterial activity. In order to make films on surfaces such as microscopic glass slide, methanolic solutions of polymer (350 μL) were spin coated onto the glass surface by using a spin coater. […] To prepare thin films, mixed solutions (350 μL) obtained from the solutions of these medically relevant polymers in chloroform and methanolic solution of the chitin derivatives (CHCl3: MeOH=9:1) were spin coated onto the glass surface and dried in air. For the biodegradation study, thin films of the chitin derivatives were prepared on microscopic cover glass.
(§2) To determine the antibacterial activity of the synthesized polymers, 200 μL of 10^5 CFU/mL of bacteria were added to the wells of 96-well plate coated with the chitin derivatives with different amounts. […] The data was then subjected to sigmoidal fitting.

E. coli = experiment: as above; conditions: 10^5 CFU/mL, 37° C., 24 h, composite as (1c+AgPTS)
Experimental: as §1, §2

S. aureus [2] = experiment: Antibacterial kinetics; conditions: coated at 6×MIC; followed upto 360 min
Experimental: A quantity of 200 μL of a solution containing approximately 4.9×10^5 CFU/mL of S. aureus in nutrient broth and 5.1×10^5 CFU/mL in Luria-Bertani (LB) broth were added, and the plates were kept in an incubated shaker at 37° C. The initial time of addition of the bacteria to the wells was taken as zero, and 10 μL aliquots were withdrawn from each of the wells at set time intervals. These aliquots were added immediately to 90 μL of 0.9% saline. These solutions were further diluted by a factor of 10, and 20 μL of all the dilutions was plated on nutrient or LB agar plates immediately. The plates were incubated at 37° C. for 24 h; and bacterial colonies were counted. A plot of CFU (Log10 CFU/mL) versus time was then plotted.
Antibacterial kinetics assay was performed similarly as mentioned earlier.

SMILES: Cc1ccc(S(=O)(=O)[O-])cc1.[Ag+] [AgPTS, silver para-toluene sulfonate]
- MIC (S. aureus [1]): 39 µg/mL
- MIC (E. coli): 10 µg/mL
- Time at which S. aureus was killed (S. aureus [2]): bacteriostatic
